The record followed here is patent US4868195A, “Novel enolamides, pharmaceutical compositions and methods of use thereof for activity as modulators of the arachidonic acid cascade” (Warner-Lambert Company, priority 1988, dated 1989).

In this assay the target is Human Leukocyte Lipoxygenase. Kind of assay: Human Leukocyte Lipoxygenase Assay (LDA-H). The class given is biochemical. Particulars: for IC50: acetone-pentane powder enzyme, 234 nm, 24° C., 5 min preincubation, read-out: Concentration (M) for 50.0 % Inhibition, IC (LDAH). On the procedure: Human Leukocyte Lipoxygenase Assay (LDA-H)
Whole blood is collected from normal volunteers and spun in a refrigerated centrifuge for four minutes at 1°-6° C. at 3800 g. The buffy coat is manually separated and washed twice with chilled 0.83% NH4 Cl and centrifuged at 1000 RPM for ten minutes at 4° C. The white cell is suspended in culture media-EMEM supplemented with 6% Agamma human serum, tricine buffer, and neomycin and recentrifuged at 1000 g to yield a pellet containing the leukocytes used for the preparation of the acetone pentane powder.
The acetone-pentane powder is prepared utilizing a modification of the procedure reported for human platelet lipoxygenase. See Siegel, et al, Arachidonate Metabolism via Lipoxygenase and 12-L-hydroperoxy-5 Eicosatetraenoic Acid Peroxidase Sensitive to Antiinflammatory Drugs, Proc. Natl. Acad. Sci., USA 77: 308, 1980 and D. P. Wallach and V. R. Brown, A Novel Preparation of Human Platlet Lipoxygenase, Biochem. Biophys. Acta. 663: 361, 1981. Buffy coat prepared above is resuspended in 5-7 volumes of cold 0.1M Tris buffer, pH 7.4 containing 0.154M NaCl. The suspension is centrifuged at 13,300 g for ten minutes at 4° C. The resultant pellet is retained, resuspended in five volumes of cold acetone, recentrifuged at 13,300 g and resuspended in five volumes of cold pentane. The pentane suspension is centrifuged for ten minutes at 13,300 g to give a pellet which is dried in the cold under vacuum with periodic pulverization. The dry powder is stable for several weeks when stored at -80° C.
Enzyme stock solution is prepared in the following manner. About 15 mg of the acetone-pentane powder is suspended in 4 ml of cold tris buffer (0.1M, pH 7.4), allowed to stand for five minutes, and homogenized thoroughly. The homogenate is sonicated three times for 15 seconds each time, diluted to 7 ml with cold tris buffer (0.1M, pH 7.4), and centrifuged at 4° C. for 60 minutes at 13,300 g. the supernatent is retained and diluted to a total of 10 ml with cold tris buffer (0.1M, pH 7.4) to give the stock enzyme solution. Additional dilutions of 2-50 fold are done as necessary to locate optimal enzyme reaction rate in the assay described below.
Substrate solution is prepared at 100 μM or 1.0 μM concentrations of arachidonic acid or linoleic acid in 0.1M tris buffer, pH 9.0 containing 20% ethanol.
The enzyme reaction is followed spectrophotometrically by the appearance of a conjugated diene product at 234 nm. The reaction is monitored at 24° C. using a Gilford Model 2600 spectrophotometer. […] The effects of inhibitors on the reaction are compared with control reactions run under indentical conditions. Routinely, each compounds of the present invention is incubated with the enzyme for five minutes prior to addition of substrate to initiate the reaction. Inhibition expressed as IC50 as molar concentration of the compound required to reduce reaction rate to 50% control.

`COc1cccc2c(O)c(C(=O)C(=O)Nc3ccc(CCc4ccc(O)c(O)c4)cc3)oc12` [Example 123, 2-Benzofuranacetamide, N-[4-[2-(3,4-dihydroxyphenyl)ethyl]phenyl]-3-hydroxy-7-methoxy-α-oxo]: the IC50 came to 2.5e-05 M. Regarding `O=C(Nc1ccc(Cc2ccc(O)c(O)c2)cc1)C1CS(=O)(=O)c2ccccc2C1=O` (stereo not shown) [Example 14, N-[4-[(3,4-Dihydroxyphenyl)methyl]phenyl]-3,4-dihydro-4-oxo-2H-1-benzothiopyran-3-carboxamide, 1,1-dioxide], the “% Inhibition (LDAH)” value (Concentration 2.50 E -5 M) is 0.0%. As to `COc1ccc(CCc2ccc(NC(=O)C(=O)C3=C(O)c4ccccc4OC3)cc2)cc1OC` [Example 152], the IC50 was 5.7e-07 M. `COc1ccc(CCc2ccc(NC(=O)C3CS(=O)(=O)c4ccccc4C3=O)cc2)cc1NC(C)=O` (stereo not shown) [Example 50, N-[4-[2-(3-Acetylamino-4-methoxy)ethyl]phenyl]-3,4-dihydro-4-oxo-2H-1-benzothiopyran-3-carboxamide, 1,1-dioxide]: the “% Inhibition (LDAH)” value (Concentration 8.00 E -5 M) is listed as 0.0%. As to `O=C(Nc1ccc(CCc2cc(O)c(O)c(O)c2)cc1)C1=C(O)c2ccccc2S(=O)(=O)C1` [Example 36], the “% Inhibition (LDAH)” value (Concentration 2.50 E -5 M) is 0.0%. For the compound “N-[4-[3-(3,4-Dihydroxyphenyl)propyl]phenyl]-3,4-dihydro-2H-1-benzothiopyran-3-carboxamide, 1,1-dioxide [Example 22]”, the IC50 was 1.3e-05 M. For the compound `COc1ccc(CCc2ccc(NC(=O)C(=O)C3=C(O)c4ccccc4S(=O)(=O)C3)cc2)cc1OC` [Example 3, N-[4-[2-(3,4-Dimethoxyphenyl)ethyl)phenyl]-4-hydroxy-α-oxo-2H-1-benzothiopyran-3-acetamide, 1,1-dioxide], the “% Inhibition (LDAH)” value is listed as 0.0% (Concentration 1.00 E -5 M) and 0.0% (Concentration 2.50 E -5 M). For `CCCCCCCCCCc1ccc(NC(=O)C(=O)c2sc3ccc(Cl)cc3c2O)cc1` [Example 135, Benzo[b]thiophene-2-acetamide, 5-chloro-N-(4-decylphenyl)-3-hydroxy-α-oxo], the IC50 was determined as 2.5e-05 M. Turning to `COc1ccc(CCc2ccc(NC(=O)c3oc4ccc5ccccc5c4c3O)cc2)cc1OC` [Example 103, Naptho[2,1-b]furan-2-carboxamide, 1-hydroxy-N-[4-[2-(3,4-dimethoxyphenyl)ethyl]phenyl]], the IC50 is 1.1e-06 M. In the case of `COc1ccc(CCc2ccc(NC(=O)C(=O)c3[nH]c4cc(C)c(C)cc4c3O)cc2)cc1OC` [Example 175, 1H-Indole-2-acetamide, N-[4-[2-(3,4-dimethoxyphenyl)ethyl]phenyl]-3-hydroxy-5,6-dimethyl-α-oxo], where the note is “Concentration 2.50 E -5 M”, the “% Inhibition (LDAH)” value is 0.0%. Consider `O=C(Nc1ccc(CCc2ccc(Cl)cc2)cc1)C(=O)C1=C(O)c2ccccc2SC1` [Example 4, N-[4-[2-(4-chlorophenyl)ethyl]phenyl]-4-hydroxy-α-oxo-2H-1-benzothiopyran-3-acetamide], for which the IC50 came out at 4.5e-05 M. Turning to `CN(C)c1ccc(CCc2ccc(NC(=O)C3CS(=O)(=O)c4ccccc4C3=O)cc2)cc1` (stereo not shown) [Example 55], the IC50 amounted to 6.8e-05 M.

With `COc1ccc(CCc2ccc(NC(=O)C(=O)c3oc4cc(OC)c(OC)cc4c3O)cc2)cc1OC` [Example 115, 2-Benzofuranacetamide, N-[4-[2-(3,4-dimethoxyphenyl)ethyl]phenyl]-3-hydroxy-5,6-dimethoxy-α-oxo], the “% Inhibition (LDAH)” value (Concentration 8.00 E -5 M) is listed as 0.0%. On to `O=C(Nc1ccc(CCCCc2ccc(O)c(O)c2)cc1)C1CS(=O)(=O)c2ccccc2C1=O` (stereo not shown) [Example 23, N-[4-[4-(3,4-Dihydroxyphenyl)butyl]phenyl]-3,4-dihydro-4-oxo-2H-1-benzothiopyran-3-carboxamide, 1,1-dioxide], for which, for the setting “Concentration 2.50 E -5 M”, the “% Inhibition (LDAH)” value was found to be 0.0%. Turning to `Cc1cc2[nH]c(C(=O)C(=O)Nc3ccc(CCc4ccc(O)c(O)c4)cc3)c(O)c2cc1C` [Example 177, 1H-Indole-2-acetamide, N-[4-[2-(3,4-dihydroxyphenyl)ethyl]phenyl]-3-hydroxy-5,6-dimethyl-α-oxo], the IC50 was 8e-05 M. Take `Nc1ccc(CCc2ccc(NC(=O)C3CS(=O)(=O)c4ccccc4C3=O)cc2)cc1` (stereo not shown) [Example 52, N-[4-[2-(4-Aminophenyl)ethyl]phenyl]-3,4-dihydro-4-oxo-2H-1-benzothiopyran-3-carboxamide, 1,1-dioxide]: the IC50 came out at 6e-05 M.

Take `CCCCCCCCCCc1ccc(NC(=O)C(=O)c2oc3cc(OC)c(OC)cc3c2O)cc1` [Example 119, 2-Benzofuranacetamide, N-[4-decylphenyl]-3-hydroxy-5,6-dimethoxy-α-oxo]: under “Concentration 7.90 E -9 M”, the “% Inhibition (LDAH)” value is 50.0%. `O=C(Nc1ccc(CCc2ccc(O)c(O)c2)cc1)C1Oc2c(n(-c3ccccc3)c3ccccc23)C1=O` (stereo not shown) [Example 166, 2H-Furo[3,2-b]indole-2-carboxamide, N-[4-[2-(3,4-dihydroxyphenyl)ethyl]phenyl]-3,4-dihydro-3-oxo-4-phenyl]: the IC50 amounted to 2.7e-05 M. Same read-out and setting: under `O=C(O)c1ccc(CCc2ccc(NC(=O)C3CS(=O)(=O)c4ccccc4C3=O)cc2)cc1` (stereo not shown) [Example 12, 4-[2-[4-[[(3,4-Dihydro-4-oxo-2H-1-benzothiopyran-3-yl)carbonyl]amino]phenyl]ethyl]benzoic acid, 1,1-dioxide] stands 3.4e-06 M; under `CCCCCCCCCCc1ccc(NC(=O)C(=O)C2=C(O)c3ccccc3S(=O)(=O)C2)cc1` [Example 9, N-(4-Decylphenyl)-4-hydroxy-α-oxo-2H-1-benzothiopyran-3-acetamide, 1,1-dioxide], 7.7e-05 M. Take `COc1ccc(CCc2ccc(NC(=O)C(=O)C3Oc4cc5ccccc5cc4C3=O)cc2)cc1OC` (stereo not drawn) [Example 117, Naptho[2,3-b]furan-2-acetamide, N-[4-[2-(3,4-dimethoxyphenyl)ethyl]phenyl]-2,3-dihydro-α,3-dioxo]: the “% Inhibition (LDAH)” value (Concentration 2.50 E -5 M) is reported as 0.0%.
